# Measurements published in ChEMBL document CHEMBL1145574, “Carbonic anhydrase inhibitors: Inhibition of the new membrane-associated isoform XV with phenols” (Bioorg Med Chem Lett, 2008).
# Experiments:
# Carbonic anhydrase 1 = Carbonic anhydrase 1 (Homo sapiens, UniProt P00915)
# Description: Inhibition of human carbonic anhydrase 1 by stopped-flow CO2 hydrase assay
# Carbonic anhydrase 2 = Carbonic anhydrase 2 (Homo sapiens, UniProt P00918)
# Description: Inhibition of human carbonic anhydrase 2 by stopped-flow CO2 hydrase assay
# Carbonic anhydrase 15 = target: T1, Carbonic anhydrase 15 (Mus musculus, UniProt Q99N23)
# T1 sequence (Q99N23 whole entry): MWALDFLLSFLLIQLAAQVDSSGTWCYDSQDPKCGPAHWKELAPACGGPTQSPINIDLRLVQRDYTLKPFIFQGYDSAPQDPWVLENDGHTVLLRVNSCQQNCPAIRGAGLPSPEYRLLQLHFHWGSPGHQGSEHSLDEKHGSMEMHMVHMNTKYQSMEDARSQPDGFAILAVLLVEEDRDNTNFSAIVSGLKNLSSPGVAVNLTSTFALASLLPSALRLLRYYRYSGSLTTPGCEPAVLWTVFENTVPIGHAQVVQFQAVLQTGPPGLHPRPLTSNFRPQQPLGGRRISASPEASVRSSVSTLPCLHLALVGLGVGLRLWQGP
# Description: Inhibition of mouse recombinant carbonic anhydrase 15 by stopped-flow CO2 hydrase assay
# Sequence of Carbonic anhydrase 1 (P00915 whole entry): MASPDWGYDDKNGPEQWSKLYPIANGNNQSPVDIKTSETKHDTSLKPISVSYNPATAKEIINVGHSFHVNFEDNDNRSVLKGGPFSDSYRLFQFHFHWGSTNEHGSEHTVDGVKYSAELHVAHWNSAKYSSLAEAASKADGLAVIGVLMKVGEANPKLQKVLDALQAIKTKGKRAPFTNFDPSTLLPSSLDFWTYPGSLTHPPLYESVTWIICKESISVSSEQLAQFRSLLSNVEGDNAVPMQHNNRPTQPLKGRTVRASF
SMILES,Ki (Carbonic anhydrase 1) [µM],Ki (Carbonic anhydrase 2) [µM],Ki (Carbonic anhydrase 15) [µM]
CC(=O)Nc1ccc(O)cc1 [ACETAMINOPHEN],10,6.2,9.23
Oc1ccccc1O [CATECHOL],4000,9.91,10.2
Oc1cc(F)cc(F)c1,,,11.3
Oc1c(I)cc(Cl)c2cccnc12 [CLIOQUINOL],,,2.33
Oc1cccc(O)c1 [RESORCINOL],795,,385
Oc1cc(F)ccc1F,134,870,212
Oc1ccc(O)cc1 [HYDROQUINONE],10.7,,10.6
N#Cc1ccc(O)cc1 [4-CYANOPHENOL],131,,434
Nc1ccc(O)cc1 [4-AMINOPHENOL],,,335
O=C(O)c1ccc(O)cc1 [PARABEN],9.8,,9.32
Oc1ccccc1 [PHENOL],,,10.5
